The record followed here is patent US11533913B2, “Treating water stress in plants” (Rothamsted Research Limited, priority 2015, dated 2022).

The subject of test [1] is Spring wheat (Triticum aestivum Cadenza). The test can be described thus: Resurrection response: regrowth of new tissue from plants cut back after drought treatment. It counts as in vivo. Particulars: one application of 1 mM one day prior to re-watering, cut at 5 days after re-watering, left to regrow for 10 days. As for the experimental part: (§1) Spring wheat (Triticum aestivum Cadenza) seeds were sown in Rothamsted Prescription Compost Mix (75% medium grade (L+P) peat, 12% screened sterilised loam, 3% medium grade vermiculite, 10% grit (lime-free), 3.5 kg Osmocote Exact 3-4 month/m^3 (Scott's UK Professional, Ipswich, Suffolk, www.scottinternational.com), 0.5 kg PG mix/m^3 (Hydro Agri Ltd., Immingham, UK), Wetting agent and Lime) and grown in controlled environment conditions with a photoperiod of 16 hours light, 8 hours dark, day/night temperatures of 20° C./16° C., photon flux density of 600 μmol m^−2 s^−1, and ambient relative humidity. Once the plants had reached Feekes stage 4, water was withheld for 10 days. On the 9th day, 30 ml 1 mM solutions of oNPE-T6P and DMNBT6P were applied to all above-ground biomass, on the 10th day the watering schedule was reinstated. Plants were harvested to measure biomass production every 5 days for 30 days after watering was reinstated. Both experiments were completed in replicates of 6.
Analysis of Variance (ANOVA) was applied to data to test for differences between treatments. A natural log transformation was used where necessary to ensure constant variance. The GENSTAT statistical system was used for this analysis (2011, 14th edition, ©VSN International Ltd, Hemel Hempstead, UK). […]

Test [2] shares this test system. In words: Recovery response: regrowth (biomass) of water stressed wheat plants after re-watering. The class given is in vivo. The conditions noted are these: 4-week-old wheat plants sprayed once with 30 mL of 1 mM after 9 days of drought; watering resumed 1 day after treatment. As for the experimental part: as §1
Analysis of Variance (ANOVA) was applied to data to test for differences between treatments. A natural log transformation was used where necessary to ensure constant variance. The GENSTAT statistical system was used for this analysis (2011, 14th edition, ©VSN International Ltd, Hemel Hempstead, UK).
The effect of the signalling precursors upon plant resilience and recovery were tested. Drought is still the biggest global factor that limits crop yields, even in developed countries, such as the UK (Boyer, 1982, Science 218: 443-448).

In the case of `O=P(O)(O)OC[C@H]1O[C@H](O[C@H]2O[C@H](CO)[C@@H](O)[C@H](O)[C@H]2O)[C@H](O)[C@@H](O)[C@@H]1O` [Compound T6P, trehalose 6-phosphate], in test [1], the “regrowth (resurrection response) of new tissue from plants cut back after drought treatment” value is reported as “identical results to use of water alone”. The “regrowth (recovery response) following resumption of watering” value (from here on “regrowth … of watering”) in test [2] is recorded as “identical results to use of water alone”.

Regarding `COc1cc(COP(=O)(OCc2cc(OC)c(OC)cc2[N+](=O)[O-])OC[C@H]2O[C@H](O[C@H]3O[C@H](CO)[C@@H](O)[C@H](O)[C@H]3O)[C@H](O)[C@@H](O)[C@@H]2O)c([N+](=O)[O-])cc1OC` [DMNB-T6P 2, 6-O-bis-(4,5-dimethoxy-2-nitrobenzyloxyphosphoryl)-D-trehalose], the “regrowth … of watering” value in test [2] is given as “the effects were dramatic”.

In the case of `CC(OP(=O)(OC[C@H]1O[C@H](O[C@H]2O[C@H](CO)[C@@H](O)[C@H](O)[C@H]2O)[C@H](O)[C@@H](O)[C@@H]1O)OC(C)c1ccccc1[N+](=O)[O-])c1ccccc1[N+](=O)[O-]` (stereo partly drawn) [oNPE-T6P 3, 6-O-bis[1-(2-nitrophenyl)-ethoxyphosphoryl]-D-trehalose], the “regrowth … of watering” value in test [2] was “the effects were dramatic”.
